Assay results from ChEMBL document CHEMBL4251632, “Synthesis and antidepressant-like activity of novel aralkyl piperazine derivatives targeting SSRI/5-HT1A/5-HT7” (Eur J Med Chem, 2018).

Columns and labels:
[1] = AUC (0 to infinity) in Sprague-Dawley rat at 0.5 mg/kg, iv administered as single dose by LC-MS/MS analysis; format: ADME, organism-based; design: dose 0.5 mg/kg, time infinity, route intravenous; conditions: in vivo
Rattus norvegicus [2] = test: Apparent clearance during terminal phase in Sprague-Dawley rat at 0.5 mg/kg, iv administered as single dose by LC-MS/MS analysis; format: ADME, organism-based; conditions: in vivo
[3] = Plasma concentration in Sprague-Dawley rat at 2 mg/kg, po administered as single dose measured after 15 mins by LC-MS/MS analysis; format: ADME, organism-based
[4] = MRT (0 to t) in Sprague-Dawley rat at 2 mg/kg, po administered as single dose by LC-MS/MS analysis; format: ADME, organism-based; conditions: in vivo
Mus musculus [5] = test: Antidepressant-like activity in mouse assessed as reduction in immobility time at 20 mg/kg/day, po administered once daily for 7 days measured for 5 mins at 1 hr post last dose by tail suspension test relative to control; format: functional; design: scale not given: the % may be the effect or the level left
Mus musculus [6] = test: Antidepressant-like activity in mouse assessed as reduction in immobility time at 10 mg/kg/day, po administered once daily for 7 days measured for 5 mins at 1 hr post last dose by tail suspension test relative to control; format: functional; design: scale not given: the % may be the effect or the level left
[7] = Plasma concentration in Sprague-Dawley rat at 0.5 mg/kg, iv administered as single dose measured after 4 hrs by LC-MS/MS analysis; format: ADME, organism-based
[8] = biological target: T1, 5-hydroxytryptamine receptor 1A (Homo sapiens, UniProt P08908); test: Displacement of [3H]8-OH-DPAT from recombinant human 5-HT1A receptor expressed in HEK293 cell membranes after 60 mins by TopCount scintillation counting method
T1 sequence (P08908 whole entry): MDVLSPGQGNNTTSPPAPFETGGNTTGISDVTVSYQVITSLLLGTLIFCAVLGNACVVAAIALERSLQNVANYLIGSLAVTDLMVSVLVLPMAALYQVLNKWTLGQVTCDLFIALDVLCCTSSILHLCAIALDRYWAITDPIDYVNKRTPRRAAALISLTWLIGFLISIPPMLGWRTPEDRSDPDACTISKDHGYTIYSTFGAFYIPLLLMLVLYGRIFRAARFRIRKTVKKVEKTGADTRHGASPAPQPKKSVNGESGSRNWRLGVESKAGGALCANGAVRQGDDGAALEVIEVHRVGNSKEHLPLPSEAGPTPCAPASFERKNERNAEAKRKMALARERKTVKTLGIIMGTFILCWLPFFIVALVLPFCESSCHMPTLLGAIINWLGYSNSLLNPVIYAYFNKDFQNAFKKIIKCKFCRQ

Mus musculus [9] = test: Antidepressant-like activity in mouse assessed as reduction in immobility time at 20 mg/kg/day, po once daily for 7 days measured for last 4 mins of 6 mins test at 1 hr post last dose by forced swim test relative to control; format: functional; design: scale not given: the % may be the effect or the level left
Homo sapiens = organism: Homo sapiens; test: Selectivity ratio of Ki for alpha1-adrenoceptor (unknown origin) in cerebral cortex membranes to Ki for recombinant human 5-HT1A receptor expressed in HEK293 cell membranes; format: cell-based
[10] = AUC (0 to t) in Sprague-Dawley rat at 0.5 mg/kg, iv administered as single dose by LC-MS/MS analysis; format: ADME, organism-based; conditions: in vivo
[11] = biological target: Sodium-dependent serotonin transporter (Rattus norvegicus, UniProt P31652); test: Inhibition of [3H]serotonin reuptake in rat brain synaptosomes SERT after 15 mins by TopCount scintillation counting method; format: subcellular
[12] = MRT (0 to t) in Sprague-Dawley rat at 0.5 mg/kg, iv administered as single dose by LC-MS/MS analysis; format: ADME, organism-based; conditions: in vivo
[13] = biological target: Voltage-gated inwardly rectifying potassium channel KCNH2 (Homo sapiens, UniProt Q12809); test: Inhibition of human ERG expressed in CHO-K1 cells assessed as reduction in tail current amplitude at -80 mV holding potential after 2 mins by path clamp assay; format: cell-based
[14] = biological target: 5-hydroxytryptamine receptor 7 (Homo sapiens, UniProt P34969); test: Displacement of [3H]LSD from recombinant human 5-HT7 receptor expressed in CHO cell membranes after 120 mins by TopCount scintillation counting method
Rattus norvegicus [15] = test: Apparent volume of distribution during terminal phase in Sprague-Dawley rat at 0.5 mg/kg, iv administered as single dose by LC-MS/MS analysis; format: ADME, organism-based; conditions: in vivo
[16] = Clearance in rat liver microsomes at 1 uM in presence of NADPH by LC-MS/MS analysis; format: ADME, microsome; conditions: read-out: CLH
in vitro = conditions: rat, liver microsomes
Description: Half life in rat liver microsomes at 1 uM in presence of NADPH by LC-MS/MS analysis

[17] = Apparent volume of distribution during terminal phase in Sprague-Dawley rat at 2 mg/kg, po administered as single dose by LC-MS/MS analysis; format: ADME, organism-based; conditions: in vivo, read-out: Vz/F
[18] = Plasma concentration in Sprague-Dawley rat at 2 mg/kg, po administered as single dose measured after 30 mins by LC-MS/MS analysis; format: ADME, organism-based
[19] = Plasma concentration in Sprague-Dawley rat at 0.5 mg/kg, iv administered as single dose measured after 15 mins by LC-MS/MS analysis; format: ADME, organism-based
[20] = Oral bioavailability in Sprague-Dawley rat at 2 mg/kg administered as single dose by LC-MS/MS analysis; format: ADME, organism-based; conditions: in vivo
Mus musculus [21] = test: Antidepressant-like activity in po dosed mouse assessed as reduction in immobility time administered once daily for 7 days measured for last 4 mins of 6 mins test at 1 hr post last dose by forced swim test; format: functional, organism-based
[22] = Plasma concentration in Sprague-Dawley rat at 0.5 mg/kg, iv administered as single dose measured after 8 hrs by LC-MS/MS analysis; format: ADME, organism-based

Chain of Voltage-gated inwardly rectifying potassium channel KCNH2 (Q12809 whole entry): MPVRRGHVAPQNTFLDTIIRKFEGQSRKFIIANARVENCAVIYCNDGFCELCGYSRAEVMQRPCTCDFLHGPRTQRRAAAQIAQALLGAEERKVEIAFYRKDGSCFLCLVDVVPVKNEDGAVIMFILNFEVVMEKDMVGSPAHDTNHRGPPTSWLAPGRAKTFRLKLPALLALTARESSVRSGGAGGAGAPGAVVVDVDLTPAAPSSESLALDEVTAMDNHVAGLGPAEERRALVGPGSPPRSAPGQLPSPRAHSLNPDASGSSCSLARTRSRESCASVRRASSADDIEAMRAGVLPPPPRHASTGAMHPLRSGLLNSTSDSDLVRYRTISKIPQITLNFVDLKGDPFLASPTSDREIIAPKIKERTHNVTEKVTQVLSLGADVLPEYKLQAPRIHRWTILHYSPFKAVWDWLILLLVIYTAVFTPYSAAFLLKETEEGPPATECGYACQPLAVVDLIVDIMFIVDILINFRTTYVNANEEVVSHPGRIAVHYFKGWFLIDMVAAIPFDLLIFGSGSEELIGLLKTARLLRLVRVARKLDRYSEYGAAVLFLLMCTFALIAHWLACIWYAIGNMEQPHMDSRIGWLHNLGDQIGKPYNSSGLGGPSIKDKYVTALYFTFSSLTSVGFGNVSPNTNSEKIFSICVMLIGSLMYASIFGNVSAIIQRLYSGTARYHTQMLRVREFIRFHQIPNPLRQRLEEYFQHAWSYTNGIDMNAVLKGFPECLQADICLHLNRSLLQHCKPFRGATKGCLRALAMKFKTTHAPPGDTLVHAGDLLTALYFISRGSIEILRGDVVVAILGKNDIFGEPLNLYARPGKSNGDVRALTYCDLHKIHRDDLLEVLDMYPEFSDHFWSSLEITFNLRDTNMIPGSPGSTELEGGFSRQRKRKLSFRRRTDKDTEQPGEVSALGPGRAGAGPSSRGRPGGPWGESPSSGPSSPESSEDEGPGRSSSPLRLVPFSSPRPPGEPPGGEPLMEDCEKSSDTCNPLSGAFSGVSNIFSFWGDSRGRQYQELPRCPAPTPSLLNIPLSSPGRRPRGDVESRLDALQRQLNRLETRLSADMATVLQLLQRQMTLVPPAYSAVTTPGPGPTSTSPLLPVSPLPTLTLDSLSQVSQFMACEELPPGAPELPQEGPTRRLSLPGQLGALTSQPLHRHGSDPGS
Chain of Sodium-dependent serotonin transporter (P31652 whole entry): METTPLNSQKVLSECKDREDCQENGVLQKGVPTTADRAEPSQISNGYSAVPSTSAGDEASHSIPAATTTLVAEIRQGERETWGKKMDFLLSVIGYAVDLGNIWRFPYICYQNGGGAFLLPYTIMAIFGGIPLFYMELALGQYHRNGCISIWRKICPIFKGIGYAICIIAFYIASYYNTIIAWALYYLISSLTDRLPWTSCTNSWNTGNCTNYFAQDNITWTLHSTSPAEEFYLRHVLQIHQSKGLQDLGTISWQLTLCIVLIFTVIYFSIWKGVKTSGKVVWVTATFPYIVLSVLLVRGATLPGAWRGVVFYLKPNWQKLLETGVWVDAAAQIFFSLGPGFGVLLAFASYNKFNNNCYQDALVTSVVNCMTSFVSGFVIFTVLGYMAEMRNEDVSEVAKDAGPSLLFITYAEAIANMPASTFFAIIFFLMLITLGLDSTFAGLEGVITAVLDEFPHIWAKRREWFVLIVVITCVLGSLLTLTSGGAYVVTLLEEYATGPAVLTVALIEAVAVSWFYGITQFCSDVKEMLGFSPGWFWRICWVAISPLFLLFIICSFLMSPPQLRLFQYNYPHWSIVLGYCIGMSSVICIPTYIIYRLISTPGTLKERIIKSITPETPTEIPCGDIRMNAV
Chain of 5-hydroxytryptamine receptor 7 (P34969 whole entry): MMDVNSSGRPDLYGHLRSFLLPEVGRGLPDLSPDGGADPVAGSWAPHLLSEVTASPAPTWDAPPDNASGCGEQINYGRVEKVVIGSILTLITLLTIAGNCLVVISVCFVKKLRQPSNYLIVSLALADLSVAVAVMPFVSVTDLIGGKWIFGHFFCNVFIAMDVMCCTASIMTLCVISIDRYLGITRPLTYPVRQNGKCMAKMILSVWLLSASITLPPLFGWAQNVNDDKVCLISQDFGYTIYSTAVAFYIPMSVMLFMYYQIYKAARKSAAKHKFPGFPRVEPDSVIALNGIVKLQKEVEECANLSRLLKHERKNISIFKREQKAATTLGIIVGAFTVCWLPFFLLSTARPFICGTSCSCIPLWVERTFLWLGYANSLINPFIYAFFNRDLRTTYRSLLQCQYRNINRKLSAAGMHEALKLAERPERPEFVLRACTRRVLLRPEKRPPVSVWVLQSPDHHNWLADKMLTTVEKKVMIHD

AUC(0-inf) [1]: 328 ng·h/mL | CLz/F (Rattus norvegicus [2]): 25 mL/min/kg | concentration at […] [3]: 20.4 ng/mL | MRT last [4]: 4.3 h | concentration at 4 h [7]: 20.7 ng/mL | Ki [8]: 28 nM | AUC(0-t) [10]: 287 ng·h/mL | IC50 [11]: 25 nM | MRT last [12]: 1.9 h | Ki [14]: 3.3 nM | Vz/F (Rattus norvegicus [15]): 7.4 L/kg | microsomal CLint at 1 µM [16]: 29.8 µL/min/mg | half-life at 1 µM (in vitro): 0.775 h | Vd/F [17]: 17.1 L/kg | concentration at 0.5 h [18]: 58.3 ng/mL | concentration at […] [19]: 149 ng/mL | bioavailability [20]: 68.5% | concentration at 8 h [22]: 8.84 ng/mL
SMILES: Fc1ccc(N2CCN(CCCc3c[nH]c4ccc(F)cc34)CC2)c(-c2ccccc2)c1
Activity (Mus musculus [5]): 20% | Activity (Mus musculus [6]): 18% | Activity (Mus musculus [9]): 27% | Ratio Ki (Homo sapiens): 1 | IC50 [13]: 16700 nM | Activity (Mus musculus [21]): Dose-dependent effect
